Results as given in the supplement of paper PMC13207355.
Structures can show the parent of a compound that is named as a salt.

Assays:
Settings in all cases: exposure time: 72 h
E21 [1] = patient-derived glioblastoma stem cells of mesenchymal subtype; test: phenotypic distance (Euclidean, principal components) from DMSO controls (arbitrary units); higher = stronger morphological change
E28 [2] = patient-derived glioblastoma stem cells of classical subtype; test: as above
FT3469 [3] = normal neural stem cell line; test: as above
E31 [4] = patient-derived glioblastoma stem cells of proneural subtype; test: as above
E57 [5] = patient-derived glioblastoma stem cells of mesenchymal subtype; test: as above
E13 [6] = patient-derived glioblastoma stem cells of classical subtype; test: as above
E34 [7] = patient-derived glioblastoma stem cells of proneural subtype; test: as above
E21 [8] = test: surviving fraction (nuclei count normalised to DMSO); higher = more cells surviving (less toxic)
E28 [9] = test: as above
FT3469 [10] = test: as above
E31 [11] = test: as above
E57 [12] = test: as above
E13 [13] = test: as above
E34 [14] = test: as above
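Wherever phenotypic distance (Euclidean, principal components) from DMSO controls is given: cell Painting imaging in 384-well plates, CellProfiler features reduced to at least 20 principal components, Euclidean distance versus same-plate DMSO vehicle wells (0.1% v/v), median over six images per well.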
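Wherever surviving fraction (nuclei count normalised to DMSO) is given: nuclei counted by high-content imaging of Hoechst-stained cells in laminin-coated 384-well plates, relative to 0.1% DMSO vehicle wells, with staurosporine as cell-death control.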

C[C@@H]1CN([C@H]2CC[C@](C#N)(c3ccc(F)cc3)CC2)CC[C@]1(C(=O)O)c1ccccc1 [Levocabastine hydrochloride]
Settings | phenotypic distance | surviving fraction
E13 [6], 4.1 nM | 0.774 | –
E13 [6], 12.3 nM | 0.599 | –
E13 [6], 37 nM | 0.564 | –
E13 [6], 111.1 nM | 0.596 | –
E13 [6], 333.3 nM | 0.491 | –
E13 [6], 1000 nM | 0.354 | –
E13 [6], 3000 nM | 0.712 | –
E13 [13], 4.1 nM | – | 0.997
E13 [13], 12.3 nM | – | 1.04
E13 [13], 37 nM | – | 1.06
E13 [13], 111.1 nM | – | 0.914
E13 [13], 333.3 nM | – | 1.05
E13 [13], 1000 nM | – | 0.985
E13 [13], 3000 nM | – | 0.918
E21 [1], 4.1 nM | 0.745 | –
E21 [1], 12.3 nM | 0.621 | –
E21 [1], 37 nM | 0.743 | –
E21 [1], 111.1 nM | 0.866 | –
E21 [1], 333.3 nM | 0.582 | –
E21 [1], 1000 nM | 0.688 | –
E21 [1], 3000 nM | 3.41 | –
E21 [8], 4.1 nM | – | 0.99
E21 [8], 12.3 nM | – | 1.15
E21 [8], 37 nM | – | 0.977
E21 [8], 111.1 nM | – | 1.12
E21 [8], 333.3 nM | – | 1.11
E21 [8], 1000 nM | – | 1.12
E21 [8], 3000 nM | – | 0.854
E28 [2], 4.1 nM | 0.787 | –
E28 [2], 12.3 nM | 0.763 | –
E28 [2], 37 nM | 0.863 | –
E28 [2], 111.1 nM | 0.374 | –
E28 [2], 333.3 nM | 0.741 | –
E28 [2], 1000 nM | 0.713 | –
E28 [2], 3000 nM | 1.04 | –
E28 [9], 4.1 nM | – | 1.07
E28 [9], 12.3 nM | – | 1.17
E28 [9], 37 nM | – | 1.13
E28 [9], 111.1 nM | – | 1.1
E28 [9], 333.3 nM | – | 1.1
E28 [9], 1000 nM | – | 1.12
E28 [9], 3000 nM | – | 0.949
E31 [4], 4.1 nM | 0.412 | –
E31 [4], 12.3 nM | 0.744 | –
E31 [4], 37 nM | 0.868 | –
E31 [4], 111.1 nM | 0.539 | –
E31 [4], 333.3 nM | 0.794 | –
E31 [4], 1000 nM | 0.681 | –
E31 [4], 3000 nM | 0.779 | –
E31 [11], 4.1 nM | – | 1.11
E31 [11], 12.3 nM | – | 1.06
E31 [11], 37 nM | – | 1.13
E31 [11], 111.1 nM | – | 1.01
E31 [11], 333.3 nM | – | 1.17
E31 [11], 1000 nM | – | 1.06
E31 [11], 3000 nM | – | 1.06
E34 [7], 4.1 nM | 0.554 | –
E34 [7], 12.3 nM | 1.09 | –
E34 [7], 37 nM | 0.93 | –
E34 [7], 111.1 nM | 0.824 | –
E34 [7], 333.3 nM | 0.742 | –
E34 [7], 1000 nM | 0.79 | –
E34 [7], 3000 nM | 0.624 | –
E34 [14], 4.1 nM | – | 1.01
E34 [14], 12.3 nM | – | 0.8
E34 [14], 37 nM | – | 1.25
E34 [14], 111.1 nM | – | 0.952
E34 [14], 333.3 nM | – | 0.972
E34 [14], 1000 nM | – | 0.909
E34 [14], 3000 nM | – | 1.22
E57 [5], 4.1 nM | 1.04 | –
E57 [5], 12.3 nM | 0.495 | –
E57 [5], 37 nM | 0.313 | –
E57 [5], 111.1 nM | 0.928 | –
E57 [5], 333.3 nM | 4.21 | –
E57 [5], 1000 nM | 0.708 | –
E57 [5], 3000 nM | 0.745 | –
E57 [12], 4.1 nM | – | 1.09
E57 [12], 12.3 nM | – | 1.02
E57 [12], 37 nM | – | 0.987
E57 [12], 111.1 nM | – | 1.11
E57 [12], 333.3 nM | – | 1.08
E57 [12], 1000 nM | – | 0.975
E57 [12], 3000 nM | – | 0.994
FT3469 [3], 4.1 nM | 0.782 | –
FT3469 [3], 12.3 nM | 0.792 | –
FT3469 [3], 37 nM | 0.998 | –
FT3469 [3], 111.1 nM | 0.719 | –
FT3469 [3], 333.3 nM | 3.75 | –
FT3469 [3], 1000 nM | 0.437 | –
FT3469 [3], 3000 nM | 3.86 | –
FT3469 [10], 4.1 nM | – | 1.08
FT3469 [10], 12.3 nM | – | 1.15
FT3469 [10], 37 nM | – | 1.05
FT3469 [10], 111.1 nM | – | 1.11
FT3469 [10], 333.3 nM | – | 1.04
FT3469 [10], 1000 nM | – | 1.07
FT3469 [10], 3000 nM | – | 0.784
